# Reference: patent US5278045A, “Method and compositions to screen compounds for enhancement of the cholinergic, dopaminergic and serotonergic function” (Du Pont Merck Pharmaceutical Company, priority 1990, dated 1994)
# Where no end group is shown, it is not given here.
# Test system: DuP 996 binding protein
# Experiment: Specificity of the DuP 996 binding protein (displacement of tritiated DuP 996 by pharmacological standards)
# Design: species or system rat
# Settings: not given
row,Molecule,ability to displace tritiated DuP 996 binding from the binding protein
1,CN1[C@@H]2CC[C@H]1C[C@@H](OC(=O)C(CO)c1ccccc1)C2 (stereo partly drawn) [atropine],None of these pharmacological standards was able to displace
2,COc1ccc(CCN(C)CCCC(C#N)(c2ccc(OC)c(OC)c2)C(C)C)cc1OC (stereo not drawn) [verapamil],None of these pharmacological standards was able to displace
3,CN1C(=O)CN=C(c2ccccc2)c2cc(Cl)ccc21 [diazepam],None of these pharmacological standards was able to displace
4,CN1CCCC1c1cccnc1 (stereo not drawn) [nicotine],None of these pharmacological standards was able to displace

# Same assay, conditions: receptor and ion channel ligands and neuropeptides against 10 nM tritiated DuP 996
row,Molecule,ability to displace tritiated DuP 996 binding from the binding protein
1,neurokinin B,None of these pharmacological standards was able to displace
2,"C=CCN1CCC2(C)c3cc(O)ccc3CC1C2C (single isomer, unassigned; (+)) [(+)-SKF 10,047]",None of these pharmacological standards was able to displace
3,LHRH: pharmacological standard,None of these pharmacological standards was able to displace
4,CC(C)NCC(O)c1ccc(O)c(O)c1 (stereo not drawn) [isoproterenol],None of these pharmacological standards was able to displace
5,neurotensin 8-13,None of these pharmacological standards was able to displace
6,CC(N)Cc1ccccc1 (stereo not drawn) [amphetamine],None of these pharmacological standards was able to displace
7,C=CCN1CC[C@]23c4c5ccc(O)c4O[C@H]2C(=O)CC[C@@]3(O)[C@H]1C5 [naloxone],None of these pharmacological standards was able to displace
8,angiotensin III,None of these pharmacological standards was able to displace
9,CN/C(=N/CCSCc1nc[nH]c1C)NC#N [cimetidine],None of these pharmacological standards was able to displace
10,veratidine,None of these pharmacological standards was able to displace
11,COC(=O)[C@@H]1[C@H]2C[C@H]3c4[nH]c5ccccc5c4CCN3C[C@@H]2CC[C@@H]1O [yohimbine],None of these pharmacological standards was able to displace
12,Cn1c(=O)c2c(ncn2C)n(C)c1=O [caffeine],None of these pharmacological standards was able to displace
13,CN1CCN2c3ccccc3Cc3ccccc3C2C1 (stereo not drawn) [mianserin],None of these pharmacological standards was able to displace
14,c1ccc(C2(N3CCCCC3)CCCCC2)cc1 [phencyclidine],None of these pharmacological standards was able to displace
15,CN(C)CCC=C1c2ccccc2CCc2ccccc21 [amitriptyline],None of these pharmacological standards was able to displace
16,cholecystokinin,None of these pharmacological standards was able to displace
17,COc1ccc(CN(CCN(C)C)c2ccccn2)cc1 [pyrilamine],None of these pharmacological standards was able to displace
18,O=C1C[C@@H]2OCC=C3CN4CC[C@]56c7ccccc7N1[C@H]5[C@H]2[C@H]3C[C@H]46 [strychnine],None of these pharmacological standards was able to displace
19,"3,4-aminopyridine",None of these pharmacological standards was able to displace
20,Nc1ncnc2c1ncn2[C@@H]1O[C@H](CO)[C@@H](O)[C@H]1O [adenosine],None of these pharmacological standards was able to displace
21,C1CCc2nnnn2CC1 [pentylenetetrazol],None of these pharmacological standards was able to displace
22,O=C(CCCN1CCC(O)(c2ccc(Cl)cc2)CC1)c1ccc(F)cc1 [haloperidol],None of these pharmacological standards was able to displace
23,ACTH 1-24: pharmacological standard,None of these pharmacological standards was able to displace
24,NCCCC(=O)O [GABA],None of these pharmacological standards was able to displace
25,substance P,None of these pharmacological standards was able to displace
26,NC[C@H](O)c1ccc(O)c(O)c1 [norepinephrine],None of these pharmacological standards was able to displace
27,CN[C@H](CC(=O)O)C(=O)O [N-methyl-D-aspartic acid],None of these pharmacological standards was able to displace
28,neurokinin A,None of these pharmacological standards was able to displace
29,RPPGFSPFR [bradykinin],None of these pharmacological standards was able to displace
30,NC(=O)CN1CCCC1=O [piracetam],None of these pharmacological standards was able to displace

# Biological target: DuP 996 binding protein
# Experiment: Radioreceptor screening assay (displacement of tritiated DuP 996)
# Design: species or system rat
# Settings: inhibition of binding of 10 nM tritiated DuP 996, pH 7.4, 25° C., 60 minutes
# Protocol: Male Sprague-Dawley rats (Charles River Breeding Laboratories) at 200-250 g were euthanatized by decapitation. Rat brain regions were dissected according to Heffner et al., Pharmacol. Biochem. Behav., 13, 453 (1980). Brain membranes were prepared by the method of Tam, Proc. Natl. Acad. Sci. USA, 80, 6703 (1983). The brain tissues were homogenized (20 sec) in 10 vol (wt/vol) of ice-cold 0.32M sucrose with a Brinkman Polytron (setting 8). The homogenate was centrifuged at 920×g for 10 min at 4° C. The supernatant was centrifuged at 47,000×g for 20 min. The resulting membrane pellet was resuspended in 10 vol (original wt/vol) of 50 mM Tris-HCl (pH 7.4) and incubated at 37° C. for 30 min to degrade and dissociate bound endogenous ligands. The membranes were then centrifuged at 47,000×g for 20 min and resuspended in 50 mM Tris-HCl.
# Compounds to be screened were incubated with brain membranes. (1-2 mg protein) in 50 mM Tris-HCl buffer, pH 7.4, for 10 minutes in 25° C. Then 10 nM tritiated DuP 996 or its active structural analogs were added and incubated at 25° C. for 60 minutes. The samples were filtered on Whatman GF/B glass filters which had been soaked in 0.2% polyethylenimine and washed 3 times each with 5 ml of ice-cold Tris buffer. Nonspecific binding was determined by performing binding in the presence of 10 μM DuP 996. The control represents specific binding in the absence of compounds to be screened. Screened compounds which inhibited the specific binding of tritiated DuP 996 or analogs to its binding protein should be active in binding to the same protein. This is illustrated further in Example 4, Part B.
row,Molecule,IC50
1,"CN1C(=O)C(Cc2ccncc2)(Cc2ccncc2)c2ccccc21 [Compound 22, 1,3-Dihydro-1-methyl-3-3-bis(4-pyridinylmethyl)-2-H-indol-2-one]",15.9 µM
2,"O=C1c2ccccc2C(Cc2ccncc2)(Cc2ccncc2)c2ccccc21 [Compound 4, 10,10-Bis(4-pyridinylmethyl)-9(10H)-anthracenone]",0.034 µM

# Test system: ACh release
# Experiment: Neurotransmitter release assay: stimulated ACh release from brain slices
# Design: species or system rat
# Settings: concentration to enhance stimulated release of ACh by 100% (2-fold) over control, from dose response curves
# Protocol: Male Wistar rats weighing 175-200 g were euthanatized and the brains were dissected out immediately. Slices (0.3 mm thick) from the parietal cortex were prepared manually by using a recessed Lucite® guide. Slices (1.5 mm thick) from the hippocampus and the caudate nucleus were prepared by using a slotted brain holder. All slices were subsequently cut into 0.25×0.25 mm squares with a McIlwain tissue chopper.
# Labeling of transmitter stores in slices was prepared by the following methods. For ACh release, slices (approximately 100 mg wet weight) were incubated in 10 ml Krebs-Ringer (KR) medium containing (mM): NaCl(116), KCl(3), CaCl2 (1.3), MgCl2 (1.2), KH2 PO4 (1.2), Na2 SO4 (1.2), NaHCO3 (25) and glucose(11), to which 10 μCi ^3 H-choline (specific activity approx. 80 Ci/mmol: NEN) and 10 nmol unlabeled choline had been added to give a final concentration of 10^-6 M. Incubation was carried out for 30 min at 37° C. under a steady flow of 95% O2 /5% CO2. Under these conditions, part of the radioactive choline taken up is converted into radioactive ACh by cholinergic nerve endings, stored in synaptic vesicles, and released upon depolarization by high-K^+ -containing medium [Molenaar et al., 1973a]. For dopamine (DA), serotonin (5-HT), and norepinephrine (NE) release, slices (approximately 100 mg wet weight) were incubated in KR medium containing 0.01 mM nialamide at 37° C. under a steady flow of 95% O2 /5% CO2. The MAO-inhibitor nialamide was added to the medium in order to inhibit metabolism to the monoamines. Incubation was for 30 min in 10 ml of KR medium to which 10 μCi ^3 H-dopamine, ^3 H-norepinephrine, or ^3 H-5-hydroxytryptamine (specific activity 30, 45, and 78 Ci/mmol, respectively: all from NEN) had been added.
# Separate experiments were performed for the release of each neurotransmitter. After labeling of the transmitter stores, the slices were washed three times with non-radioactive KR medium and transferred to a superfusion apparatus to measure the drug effects on transmitter release [Schoemaker et al., Psychopharmacology 74, 137 (1981)]. The superfusion apparatus consisted of 10 thermo-jacketed glass columns of 5 mm diameter which were provided with GF/F glass fiber filters to support the brain slices (approximately 10 mg tissue/column). Superfusion was carried out with KR medium at a rate of 0.3 ml/min. For ACh release, 10^-5 M hemicholinium-3 was added to the medium to prevent the uptake of choline formed during superfusion from phospholipids and released ACh, so that it could not be subsequently converted into newly synthesized ACh, which would be released in preference to the pre-formed, labeled ACh. The medium was delivered by a 25-channel peristaltic pump (Ismatec; Brinkman) and maintained at 37° C. by a thermostated stainless-steel heating coil before entering the superfusion column. Each column was provided with a four-way slider valve (Beckman Instruments) which allowed rapid change of low-to-high-K^+ -KR-medium and with two 10-channel, 3-way valves which were used to change form drug-free to drug-containing low- and high-K^+ -KR media.
# After 15 min washout of non-specifically bound radioactivity during superfusion, the collection of fractions of 4 min (1.2 ml) each was started. After 3×4 min, the KR medium was changed to a KR medium with 25 mM KCl (ACh, 5-HT release) or 12.5 mM KCl (DA release) (high K^+ -KR medium; S1). Depolarization-induced stimulation of release by high-K^+ -KR medium was then substituted by drug- or vehicle-containing low- and high-K^+ -KR medium and superfusion continued for 3×4 min with low-K^+ -KR medium, for 1×4 min with high-K^+ -KR medium (S2), and for 2×4 min with low-K^+ -KR medium.
# Compounds were added to the medium by 100-fold dilution of appropriate stock solutions (in 0.9% NaCl/H2 O) with either low- or high-K^+ -KR medium.
# All superfusion fractions were collected in liquid scintillation counting vials.
row,Molecule,ACh Release EC100
1,"CN1C(=O)C(Cc2ccncc2)(Cc2ccncc2)c2ccccc21 [Compound 22, 1,3-Dihydro-1-methyl-3-3-bis(4-pyridinylmethyl)-2-H-indol-2-one]","17,000 nM"
2,"O=C1c2ccccc2C(Cc2ccncc2)(Cc2ccncc2)c2ccccc21 [Compound 4, 10,10-Bis(4-pyridinylmethyl)-9(10H)-anthracenone]",90 nM
3,"3,3-Bis(3-pyridinylmethyl)-1-phenyl-1H-indol-2(3H)one N-oxide [Compound 23]","100,000 nM"
